Data reported in the supplement of paper PMC11781733.
Where a name gives a salt, the structure may show the parent alone.

How the values were obtained:
Details in all cases: exposure time: 15 min to 3 h acute
Dugesia japonica [1] = assay: crawl-out incidence (% planarians); higher = higher incidence or increase relative to vehicle control
Experimental: (§1)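 Adult asexual Dugesia japonica planarians (1 per well, 48-well plate, n=24 over technical triplicates) were exposed acutely (15 min to 3 h) to each compound (0.5% DMSO or water vehicle) and screened on a robotic platform for crawl-out, stickiness, body shape, phototaxis, noxious-heat scrunching and locomotion endpoints. Binary endpoints are incidence rate x100. Continuous endpoints are the median response normalised to the plate vehicle median, as % change or difference. Negative incidences after vehicle subtraction were set to 0.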

Dugesia japonica [2] = assay: speed in dark vs vehicle (% change vs vehicle); higher = higher incidence or increase relative to vehicle control
Experimental: as §1, with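 “x100 normalised to in-plate vehicle controls.” for “x100.”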

Dugesia japonica [3] = assay: C-shape incidence (% planarians (vehicle-normalised)); higher = higher incidence or increase relative to vehicle control
Outline: (§2)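 Body shape incidence, for a given shape or for any abnormal shape, is reported ×100 and normalised to vehicle controls on the same plate, with negative values set to 0. D. japonica planarians fasted for 5–7 days were placed one per well in 200 μL in sealed 48-well plates and exposed to at least 5 concentrations. Within 15 minutes–3 hours of exposure, a researcher scored contraction, C-shape, corkscrew and hyperkinesis manually and blind, excluding worms that crawled out.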

Dugesia japonica [4] = assay: corkscrew incidence (% planarians (vehicle-normalised)); higher = higher incidence or increase relative to vehicle control
Outline: as §2

Dugesia japonica [5] = assay: stickiness incidence (% planarians (vehicle-normalised)); higher = higher incidence or increase relative to vehicle control
Outline: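 Worms that crawled out of their wells were excluded from this binary stickiness endpoint, scored in fasted Dugesia japonica planarians and normalised to vehicle incidence on the same plate. Each planarian was kept alone in a sealed 48-well plate well in 200 μL of solution, with 0.5% DMSO or water as vehicle, and tested 15 min–3 h after exposure to half- or quarter-log concentration series. Technical triplicates were pooled (n = 24), negative values became 0, and values were multiplied by 100.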

Dugesia japonica [6] = assay: hyperkinesis incidence (% planarians (vehicle-normalised)); higher = higher incidence or increase relative to vehicle control
Outline: as §2

Dugesia japonica [7] = assay: speed first 30 s blue light vs vehicle (% change vs vehicle); higher = higher incidence or increase relative to vehicle control
Outline: (§3)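 Crawling speed in the dark or during blue-light periods was measured by automated tracking of intact, fasted Dugesia japonica, one per well of a 48-well plate in 200 μL. Worms were tested 15 min to 3 h after exposure in 0.5% DMSO or water vehicle. Eight worms per concentration per plate were run in technical triplicate (n = 24). Each worm was normalised to the plate's vehicle median, and the value is the median percent change; worms that crawled out were excluded.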

Dugesia japonica [8] = assay: speed second 30 s blue light vs vehicle (% change vs vehicle); higher = higher incidence or increase relative to vehicle control
Outline: as §3

Dugesia japonica [9] = assay: pharynx extrusion incidence (% planarians (vehicle-normalised)); higher = higher incidence or increase relative to vehicle control
Outline: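 Fasted, intact Dugesia japonica were scored manually and blind for pharynx extrusion as a body-shape category, with the incidence normalised to in-plate vehicle controls. Testing took place 15 min to 3 h after exposure, one worm per well in 200 μL of 0.5% DMSO or water vehicle, with eight worms per concentration per plate in triplicate (n = 24). Worms that crawled out were excluded, and negative values were set to 0.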

Dugesia japonica [10] = assay: loss of phototaxis incidence (% planarians (vehicle-normalised)); higher = higher incidence or increase relative to vehicle control
Outline: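 For each concentration, eight intact, fasted Dugesia japonica per plate were placed singly in wells of a 48-well plate in 200 μL and run in technical triplicate (n = 24). Testing took place 15 min to 3 h after exposure in 0.5% DMSO or water vehicle. Loss of phototaxis was recorded as present or absent by automated object tracking and expressed as an incidence rate normalised to in-plate vehicle controls. For this rate, ×100 was applied, negatives were set to 0, and worms that crawled out were excluded.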

Dugesia japonica [11] = assay: total locomotor bursts minus vehicle (bursts difference vs vehicle); higher = higher incidence or increase relative to vehicle control
Outline: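 The value is the median normalised response for total locomotor bursts, an unstimulated behaviour measured by image-based object tracking in fasted Dugesia japonica planarians. Animals sat singly in the wells of a sealed 48-well plate in 200 μL solution and were tested 15 min–3 h after exposure to half- or quarter-log concentration series in 0.5% DMSO or water. Each planarian's value was corrected by subtracting the plate vehicle-control median, with no ×100 scaling, and crawled-out worms were left out.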

Dugesia japonica [12] = assay: noxious heat displacement strength vs vehicle (% change vs vehicle); higher = higher incidence or increase relative to vehicle control
Outline: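 Each intact, fasted Dugesia japonica was tested alone in a well of a 48-well plate in 200 μL, 15 min to 3 h after exposure in 0.5% DMSO or water vehicle. Eight worms per concentration per plate were used in technical triplicate (n = 24). Displacement strength under noxious heat came from the scrunching assay with automated object tracking and is given as the median percent change against the plate's vehicle median, excluding worms that crawled out.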

Dugesia japonica [13] = assay: contracted body shape incidence (% planarians (vehicle-normalised)); higher = higher incidence or increase relative to vehicle control
Outline: as §2

Dugesia japonica [14] = assay: anxiety (time in outer well region) vs vehicle (% change vs vehicle); higher = higher incidence or increase relative to vehicle control
Outline: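 Dugesia japonica planarians fasted for 5–7 days were placed one per well in 200 μL in sealed 48-well plates and exposed to at least 5 concentrations, with n = 24 per concentration in technical triplicates, then screened within 15 minutes–3 hours. Object tracking in MATLAB or Python measured the time each worm spent in the outer portion of the well, and worms that crawled out were excluded. Each response was divided by, or reduced by, the plate vehicle median and multiplied by 100. The reported value is the median of these normalized responses.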

Dugesia japonica [15] = assay: any abnormal body shape incidence (% planarians (vehicle-normalised)); higher = higher incidence or increase relative to vehicle control
Outline: as §2

Dugesia japonica [16] = assay: resting fraction in dark vs vehicle (difference in fraction x100 vs vehicle); higher = higher incidence or increase relative to vehicle control
Outline: (§4)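 In technical triplicate, eight intact, fasted Dugesia japonica per concentration per plate were tracked automatically to score the resting fraction in the dark or under blue light. Each worm had its own well of a 48-well plate containing 200 μL and was tested 15 min to 3 h after exposure in 0.5% DMSO or water vehicle. Reported values are medians of each worm's difference from the plate's vehicle median multiplied by 100, leaving out worms that crawled out.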

Dugesia japonica [17] = assay: loss of heat-induced scrunching incidence (% planarians (vehicle-normalised)); higher = higher incidence or increase relative to vehicle control
Outline: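 Planarians of the species D. japonica, fasted for 5–7 days, were placed singly in wells of sealed 48-well plates in 200 μL and exposed to at least 5 concentrations, 24 worms per concentration in technical triplicates. Scrunching in response to a noxious heat stimulus was tested within 15 minutes–3 hours, and any worm that crawled out was excluded. The reported figure is the incidence of non-scrunching worms, normalised to vehicle controls on the same plate. This incidence is given ×100, with negatives set to 0.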

Dugesia japonica [18] = assay: resting fraction in blue light vs vehicle (difference in fraction x100 vs vehicle); higher = higher incidence or increase relative to vehicle control
Outline: as §4

Structure (SMILES) | crawl-out incidence (Dugesia japonica [1]) | speed in dark (Dugesia japonica [2]) | C-shape incidence (Dugesia japonica [3]) | corkscrew incidence (Dugesia japonica [4]) | stickiness incidence (Dugesia japonica [5]) | hyperkinesis incidence (Dugesia japonica [6]) | speed first 30 s blue light (Dugesia japonica [7]) | speed second 30 s blue light (Dugesia japonica [8]) | pharynx extrusion incidence (Dugesia japonica [9]) | loss of phototaxis incidence (Dugesia japonica [10]) | total locomotor bursts minus vehicle (Dugesia japonica [11]) | noxious heat displacement strength (Dugesia japonica [12]) | contracted body shape incidence (Dugesia japonica [13]) | anxiety (Dugesia japonica [14]) | any abnormal body shape incidence (Dugesia japonica [15]) | resting fraction in dark (Dugesia japonica [16]) | loss of heat-induced scrunching incidence (Dugesia japonica [17]) | resting fraction in blue light (Dugesia japonica [18])
Cc1ncc2n1-c1ccc(Cl)cc1C(c1ccccc1F)=NC2 [midazolam] (10 µM) | 0 | -4.66 | 0 | 0 | ≤ 0 | 8.33 | 12.7 | 6.88 | 0 | ≤ 0 | -1.5 | -18.8 | 0 | -4.77 | 8.33 | 0.667 | ≤ 0 | -0.5
Cc1cc2c(s1)Nc1ccccc1N=C2N1CCN(C)CC1 [olanzapine] (3.16 µM) | 4.17 | -69 | 8.33 | 0 | ≤ 0 | 54.2 | -79.2 | -75.2 | 0 | ≤ 0 | 41.2 | -37.1 | 0 | -4.66 | 58.3 | 51.2 | 45.8 | 34
CN1CCN(CCCN2c3ccccc3Sc3ccc(Cl)cc32)CC1 [prochloroperazine] (1 µM) | 4.17 | -31 | 0 | 0 | ≤ 0 | 4.35 | -22.6 | -13.4 | 0 | 4.35 | 10.5 | -10.7 | 0 | 9.41 | 4.35 | 7.43 | 26.1 | 5.37
CNCC[C@H](Oc1cccc2ccccc12)c1cccs1 [s-duloxetine] (1 µM) | 4.17 | 13.6 | 0 | 0 | 13 | 0 | 34.6 | -13.5 | 0 | 17.4 | 7 | -35.3 | 0 | 12.8 | 0 | -7.56 | 13 | 9.83
CN[C@H]1CC[C@@H](c2ccc(Cl)c(Cl)c2)c2ccccc21 [sertraline hydrochloride] (1 µM) | 0 | 0.19 | 0 | 0 | 8.33 | 12.5 | -11.7 | -15.7 | 0 | ≤ 0 | -2.5 | -12.6 | 0 | 5.35 | 12.5 | 5.44 | 4.17 | 0
CCCCNc1c(C(=O)OCC)c(C)nc2c1cnn2CC [tracazolate hydrochloride] (1 µM) | 0 | -16.4 | 0 | 0 | 8.33 | 0 | -20 | -8.21 | 0 | ≤ 0 | 3.25 | -26.2 | 0 | -16.4 | 0 | 1.34 | ≤ 0 | 0.18
